“And” between values parts separate entries of the source, which are not always exact repeats. Equal values may be shown once.

Assay [1] relates to mouse air pouch. Briefly: Inflammation Bioassay Protocol: mouse air pouch assay, carrageenan-induced, white blood cell count in exudate. It counts as in vivo, mice. The procedure: A mouse air pouch assay was used to determine the therapeutic effectiveness of various extracts/compounds as anti-inflammatories in the present invention.
To induce air pouches, 10-15 week old mice were injected subcutaneously on the back with 3 ml of air.
On day 2, the pouches were reinflated with 1.5 m. of air.
On day 6, inflammation was induced by injecting 1 ml of a suspension of carrageenan (2% weight/volume in calcium-free and magnesium-free phosphate buffered saline (PBS) solution) into the air pouch.
100 μL of solution including test compounds were injected with the carrageenan (additional 100 μL of PBS were injected into the controls).
After 4 hours, the mice were sacrificed by including C02 narcosis, the pouches were flushed with 2 ml of PBS, and exudates were harvested.
Exudates were diluted 1:1 with 0.015% methylene blue in PBS.
White blood cells were counted in a standard hemocytometer chamber (American Optical, Buffalo, N.Y.).

Assay [2] has as its system capsaicin-treated hindpaw. Briefly: Analgesic Bioassay Protocol: rat hindpaw withdrawal latency to radiant heat after capsaicin sensitisation. The settings on record: n=5. The format is in vivo, Sprague-Dawley rats. The procedure: A rat hindpaw assay was used to determine the therapeutic effectiveness of various extracts/compounds as analgesics in the present invention. Sprague-Dawley rats (225-250 g, male) were anesthetized with urethane and placed on their sides on a disposable Chux pad. Both hindpaws for each rat were blackened with India ink which was allowed to dry for 10 minutes. An ELH projector lamp calibrated to a standard mW/cm was used as a pain stimulus and was condensed into an area of 5×15 mm on each hindpaw and placed perpendicular to, and 72 mm from, each hindpaw. Multiple baseline hindpaw withdrawal latency times were recorded (in seconds) for each medial and each lateral surface of each hindpaw. Subsequently, 100 μl of 1 μmolar capsaicin was applied with a pipette to cover one hindpaw of each animal and allowed to dry for 10 minutes, rendering the capsaicin-treated hindpaw hypersensitive to pain stimulus relative to the non-capsaicin treated hindpaw (and thereby decreasing the withdrawal latency period for the capsaicin-treated hindpaw relative to the non-treated hindpaw). Both hindpaws were then re-blackened with India ink which was allowed to dry for 10 minutes, and hindpaw withdrawal latencies were recorded for both the capsaicin-treated and untreated hindpaws on both the medial and lateral aspects of both hindpaws at 20, 25 and 30 minutes. […] By contrast, only minor drops in the withdrawal latency periods of the untreated hindpaws was seen, and the effect that was observed is believed to be due to the central mechanism effect of capsaicin-treatment on the other hindpaw. To determine the analgesic properties of each fraction, 100 μl of each fraction were applied to the capsaicin-treated hindpaw by pipette and permitted to dry (the untreated hindpaw was not treated with the fraction). Hindpaw withdrawal latencies were then recorded at 5, 20 and 30 minutes for both the capsaicin/fraction-treated hindpaw and the untreated hindpaw. An increase in the hindpaw withdrawal time was indicative of an analgesic effect by the applied fraction.

Where [3] appears, read: white blood cells in air pouch exudate, individual mice, 4 hours after carrageenan.

As to `O=c1cc(-c2ccc(O)c(O)c2)oc2cc(OC3OC(COC4OCC(O)(CO)C4O)C(O)C(O)C3O)cc(O)c12` [Compound 580, luteolin 7-(6″-β-D-apiofuranosyl)-β-D-glucopyranoside], the “Average Cells (10^6/ml)” value in assay [1] (mean of five treated mice, control mice 2.67) is 1.00 10^6/ml. Moreover, the “anti-inflammatory effects, comparison with reference drugs” value in assay [1] (result in words) is “comparable to 0.5-1.0 mg/kg/week of chronic methotrexate, or 1.5 mg/kg acute dose of dexamethasone”. Besides, in assay [1] (setting [3]), the “Cells (10^6/ml)” value is 0.75 10^6/ml and 1.17 10^6/ml and 0.72 10^6/ml and 1.16 10^6/ml and 1.22 10^6/ml; the Cells/ml is 7.50E+05 Cells/ml and 1.17E+06 Cells/ml and 7.20E+05 Cells/ml and 1.16E+06 Cells/ml and 1.22E+06 Cells/ml. Besides, the “Average Count” value in assay [1] (white blood cells, average of 4 hemocytometer chambers, individual mice, 100 μL test solution with carrageenan, exudate after 4 hours) is 37.50 and 58.50 and 24.00 and 38.75 and 40.50. Moreover, in assay [2] (average of all post-capsaicin latencies, before test substance), the “Avg All Cap” value is 6.3 s. In addition, in assay [2] (latency 5 minutes after application to capsaicin-treated hindpaw, amount (mg)), the “Avg Ext 5” value is 13.7 s. In addition, the “Avg Ext 20” value in assay [2] (latency 20 minutes after application to capsaicin-treated hindpaw, amount (mg)) was 9.6 s. For the same compound, the “Avg Cap 20” value in assay [2] (latency 20 minutes after capsaicin, before test substance) was 5.8 s. In assay [2] (latency 25 minutes after capsaicin, before test substance), the “Avg Cap 25” value worked out at 7.2 s. Moreover, the “Avg Ext 30” value in assay [2] (latency 30 minutes after application to capsaicin-treated hindpaw, amount (mg)) turned out to be 9.4 s. Moreover, in assay [2] (latency 30 minutes after capsaicin, before test substance), the “Avg Cap 30” value turned out to be 6 s. Moreover, in assay [2] (withdrawal latency before capsaicin and before test substance), the “Avg Baseline” value was found to be 9.3 s.
